Experimental data taken from patent US10947252B2, “Inhibitors of KEAP1-Nrf2 protein-protein interaction” (Janssen Pharmaceutica NV, priority 2018, dated 2021).

Tests used:
[1] = molecular target: Kelch domain of human KEAP1 (321-624 aa) (Homo sapiens (Human), UniProt Q14145); experiment: KEAP1 KELCH ThermoFluor binding assay; conditions: KEAP Kelch […], 1,8-ANS, pH 7.0, average of results obtained, read-out: Tf Kd;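 note: Ligand-induced melting temperature shift of E. coli-expressed KEAP1 Kelch protein, Kd estimated from concentration-response curves of ΔTm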
Kelch domain of human KEAP1 (321-624 aa), sequence (Q14145 321-624): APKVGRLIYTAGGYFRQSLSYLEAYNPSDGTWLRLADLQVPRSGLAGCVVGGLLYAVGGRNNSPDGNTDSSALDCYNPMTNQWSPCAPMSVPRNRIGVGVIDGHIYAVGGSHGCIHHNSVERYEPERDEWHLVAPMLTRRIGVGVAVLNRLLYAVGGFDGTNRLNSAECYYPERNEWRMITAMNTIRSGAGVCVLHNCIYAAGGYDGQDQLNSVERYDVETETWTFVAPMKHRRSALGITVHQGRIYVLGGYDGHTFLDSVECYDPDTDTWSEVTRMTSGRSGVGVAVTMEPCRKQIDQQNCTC

[2] = tested on: Glo-Response ARE-luc2P HEK293 cell line; experiment: ARE luciferase reporter cell-based assay; conditions: average of results obtained;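 note: luciferase signal tracks Nrf2 activation of the ARE once compounds disrupt KEAP1-Nrf2 binding, read with One-Glo reagent, DMSO serving as low control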

Compound	Kd [1]	EC50 ([2]; Homo sapiens, HEK293, 24 h)	EC50 ([2]; 24 hours)
Cc1ccc([C@@H](c2ccn3c(C(F)(F)F)nnc3c2C)C(C)(C)C(=O)O)cc1CN1CC2(CCOCC2)Oc2nc(OCCCO)ccc2S1(=O)=O (single isomer, unassigned) [Example 50, (*S)-3-(3-((7′-(3-Hydroxypropoxy)-1′,1′-dioxido-2,3,5,6-tetrahydrospiro[pyran-4,4′-pyrido[2,3-b][1,4,5]oxathiazepin]-2′(3′H)-yl)methyl)-4-methylphenyl-2,2′-dimethyl-3-(8-methy-3-trifluoromethyl)-[1,2,4]triazolo[4,3-a]pyridine-7-yl)propanoic Acid]	< 1 nM	52 nM	–
Cc1ccc([C@H](c2ccn3c(C(F)(F)F)nnc3c2C)C(C)(C)C(=O)O)cc1CN1CC2(CCOCC2)Oc2nc(OCCCO)ccc2S1(=O)=O (single isomer, unassigned) [Example 51, (*R) 3-(3-((7′-(3-Hydroxypropoxy)-1′,1′-dioxido-2,3,5,6-tetrahydrospiro[pyran-4,4′-pyrido[2,3-b][1,4,5]oxathiazepin]-2′(3′H)-yl)methyl)-4-methylphenyl-2,2′-dimethyl-3-(8-methyl-3-trifluoromethyl)-[1,2,4]triazolo[4,3-a]pyridine-7-yl)propanoic Acid]	0.97 nM	646 nM	–
Cc1ccc([C@@H](c2ccn3c(C(F)F)nnc3c2C)C(C)(C)C(=O)O)cc1CN1CC2(CCOCC2)Oc2ncccc2S1(=O)=O (single isomer, unassigned) [Example 53, (*S)-3-(3-(Difluoromethyl)-8-methyl-[1,2,4]triazolo[4,3-a]pyridin-7-yl)-3-(3-((1′,1′-dioxido-2,3,5,6-tetrahydrospiro[pyran-4,4′-pyrido[2,3-b][1,4,5]oxathiazepin]-2′(3′H)-yl)methyl)-4-methylphenyl)-2,2-dimethylpropanoic Acid]	< 1 nM	3.9 nM	–
Cc1cnc2c(c1)S(=O)(=O)N(Cc1cc([C@@H](CC(=O)O)c3ccn4c(C(F)(F)F)nnc4c3C)ccc1C)CC1(CC1)O2 (single isomer, unassigned) [Example 64, (*R)-3-(4-methyl-3-((8′-methyl-1′,1′-dioxidospiro[cyclopropane-1,4′-pyrido[2,3-b][1,4,5]oxathiazepin]-2′(3′H)-yl)methyl)phenyl)-3-(8-methyl-3-(trifluoromethyl)-[1,2,4]triazolo[4,3-a]pyridin-7-yl)propanoic Acid]	< 1 nM	304 nM	–
Cc1ccc([C@H](CC(=O)O)c2ccc3c(nnn3CC3CC3)c2C)cc1CN1CC2(COC2)Oc2ncccc2S1(=O)=O (single isomer, unassigned) [Example 69, (*S)-3-(1-(Cyclopropylmethyl)-4-methyl-1H-benzo[d][1,2,3]triazol-5-yl)-3-(3-((1′,1′-dioxidospiro[oxetane-3,4′-pyrido[2,3-b][1,4,5]oxathiazepin-2′(3′H)-yl)methyl)-4-methylphenyl)propanoic Acid]	0.16 nM	28.5 nM	–
Cc1ccc([C@@H](CC(=O)O)c2ccc3c(nnn3CC3CC3)c2C)cc1CN1CC2(COC2)Oc2ncccc2S1(=O)=O (single isomer, unassigned) [Example 70, (*R)-3-(1-(Cyclopropylmethyl)-4-methyl-1H-benzo[d][1,2,3]triazol-5-yl)-3-(3-((1′,1′-dioxidospiro[oxetane-3,4′-pyrido[2,3-b][1,4,5]oxathiazepin-2′(3′H)-yl)methyl)-4-methylphenyl)propanoic Acid]	1.9 nM	180 nM	–
Cc1ccc([C@H](CC(=O)O)c2ccc3c(nnn3C)c2C(F)F)cc1CN1CC2CCCN2c2ncccc2S1(=O)=O (single isomer, unassigned) [Example 72, (*S)-3-(4-(Difluoromethyl-1-methyl-1H-benzo[d][1,2,3]triazol-5-yl)-3-(3-(((R-5,5-dioxido-7a,8,9,10-tetrahydropyridi[2,3-f]pyrrolo[2,1-d][1,2,5]thiadiazepin-6(7H)-yl)methyl)-4-methylphenyl)propanoic Acid]	5.4 nM	–	1970 nM
Cc1ccc([C@H](CC(=O)O)c2ccc3c(nnn3C)c2C(F)F)cc1CN1CC2CCCN2c2ncccc2S1(=O)=O (single isomer, unassigned) [Example 73, (*R) 3-(4-(Difluoromethyl-1-methyl-1H-benzo[d][1,2,3]triazol-5-yl)-3-(3-(((R-5,5-dioxido-7a,8,9,10-tetrahydropyridi[2,3-f]pyrrolo[2,1-d][1,2,5]thiadiazepin-6(7H)-yl)methyl)-4-methylphenyl)propanoic Acid]	3 nM	–	600 nM
Cc1ccc([C@@H](CC(=O)O)c2ccc3c(nnn3CC3CC3)c2C)cc1CN1CC2(COC2)Oc2ccccc2S1(=O)=O (single isomer, unassigned) [Example 76, (*R)-3-(1-(cyclopropylmethyl)-4-methyl-1H-benzo[d][1,2,3]triazol-5-yl)-3-(3-((1′,1′-dioxidospiro[benzo[b][1,4,5]oxathiazepin-4,3′-oxetan]-2,(3H)-yl)methyl)-4-methylphenyl)propanoic Acid]	4.8 nM	136 nM	–
Cc1ccc([C@H](CC(=O)O)c2ccc3c(nnn3CC3CC3)c2C)cc1CN1CC2(COC2)Oc2ccccc2S1(=O)=O (single isomer, unassigned) [Example 77, (*S)-3-(1-(Cyclopropylmethyl)-4-methyl-1H-benzo[d][1,2,3]triazol-5-yl)-3-(3-((1′,1′-dioxidospiro[benzo[b][1,4,5]oxathiazepin-4,3′-oxetan]-2,(3H)-yl)methyl)-4-methylphenyl)propanoic Acid]	0.42 nM	15.7 nM	–
Cc1ccc([C@@H](CC(=O)O)c2ccc3c(nnn3CC3CC3)c2C)cc1CN1CC2(CC2)N(C)c2ncccc2S1(=O)=O (single isomer, unassigned) [Example 79, (*R)-3-(1-(Cyclopropylmethyl)-4-methyl-1H-benzo[d][1,2,3]triazol-5-yl)-3-(4-methyl-3-((5′-methyl-1′,1′-dioxido-5′H-spiro[cyclopropane-1,4′-pyrido[2,3-f][1,2,5]thiadiazepin]-2′(3′H)-yl)methyl)phenyl)propanoic Acid]	5.6 nM	153 nM	–

Continued, in another order:

Kd [1]	Compound	EC50 ([2]; Homo sapiens, HEK293, 24 h)	EC50 ([2]; 24 hours)
1790 nM	Cc1ccc([C@H](c2ccn3c(C(F)F)nnc3c2C)C(C)(C)C(=O)O)cc1CN1CC2(CCOCC2)Oc2ncccc2S1(=O)=O (single isomer, unassigned) [Example 54, (*R)-3-(3-(Difluoromethyl)-8-methyl-[1,2,4]triazolo[4,3-a]pyridin-7-yl)-3-(3-((1′,1′-dioxido-2,3,5,6-tetrahydrospiro[pyran-4,4′-pyrido[2,3-b][1,4,5]oxathiazepin]-2′(3′H)-yl)methyl)-4-methylphenyl)-2,2-dimethylpropanoic Acid]	956 nM	–
< 1 nM	Cc1cnc([C@@H](c2ccn3c(C(F)(F)F)nnc3c2C)C(C)(C)C(=O)O)cc1CN1CC2(CCOCC2)Oc2ncccc2S1(=O)=O (single isomer, unassigned) [Example 56, (*S)-3-(4-((1′,1′-Dioxido-2,3,5,6-tetrahydrospiro[pyran-4,4′-pyrido[2,3-b][1,4,5]oxathiazepin]-2′(3′H)-yl)methyl)-5-methylpyridin-2-yl)-2,2-dimethyl-3-(8-methyl-3-(trifluoromethyl)-[1,2,4]triazolo[4,3-a]pyridin-7-yl)propanoic Acid]	48 nM	–
5670 nM	Cc1cnc([C@H](c2ccn3c(C(F)(F)F)nnc3c2C)C(C)(C)C(=O)O)cc1CN1CC2(CCOCC2)Oc2ncccc2S1(=O)=O (single isomer, unassigned) [Example 57, (*R)-3-(4-((1′,1′-Dioxido-2,3,5,6-tetrahydrospiro[pyran-4,4′-pyrido[2,3-b][1,4,5]oxathiazepin]-2′(3′H)-yl)methyl)-5-methylpyridin-2-yl)-2,2-dimethyl-3-(8-methyl-3-(trifluoromethyl)-[1,2,4]triazolo[4,3-a]pyridin-7-yl)propanoic Acid]	6660 nM	–
1.2 nM	CCn1nnc2c(C)c([C@@H](c3cnc(C)c(CN4CC5(CCOCC5)Oc5ncccc5S4(=O)=O)c3)C(C)(C)C(=O)O)ccc21 (single isomer, unassigned) [Example 59, (*S)-3-(5-((1′,1′-Dioxido-2,3,5,6-tetrahydrospiro[pyran-4,4′-pyrido[2,3-b][1,4,5]oxathiazepin]-2′(3′H)-yl)methyl)-6-methylpyridin-3-yl)-3-(1-ethyl-4-methyl-1H-benzo[d][1,2,3]triazol-5-yl)-2,2-dimethylpropanoic Acid]	116 nM	–
41200 nM	CCn1nnc2c(C)c([C@H](c3cnc(C)c(CN4CC5(CCOCC5)Oc5ncccc5S4(=O)=O)c3)C(C)(C)C(=O)O)ccc21 (single isomer, unassigned) [Example 60, (*R)-3-(5-((1′,1′-Dioxido-2,3,5,6-tetrahydrospiro[pyran-4,4′-pyrido[2,3-b][1,4,5]oxathiazepin]-2′(3′H)-yl)methyl)-6-methylpyridin-3-yl)-3-(1-ethyl-4-methyl-1H-benzo[d][1,2,3]triazol-5-yl)-2,2-dimethylpropanoic Acid]	12300 nM	–
< 1 nM	CCn1nnc2c(C)c([C@@H](c3cnc(C)c(CN4CC5(CCOCC5)Oc5ncc(C)cc5S4(=O)=O)c3)C(C)(C)C(=O)O)ccc21 (single isomer, unassigned) [Example 62, (*S)-3-(1-Ethyl-4-methyl-1H-benzo[d][1,2,3]triazol-5-yl)-2,2-dimethyl-3-(6-methyl-5-((8′-methyl-1′,1′-dioxido-2,3,5,6-tetrahydrospiro[pyran-4,4′-pyrido[2,3-b][1,4,5]oxathiazepin]-2′(3′H)-yl)methyl)pyridin-3-yl)propanoic Acid]	19.2 nM	–
14500 nM	CCn1nnc2c(C)c([C@H](c3cnc(C)c(CN4CC5(CCOCC5)Oc5ncc(C)cc5S4(=O)=O)c3)C(C)(C)C(=O)O)ccc21 (single isomer, unassigned) [Example 63, (*R)-3-(1-Ethyl-4-methyl-1H-benzo[d][1,2,3]triazol-5-yl)-2,2-dimethyl-3-(6-methyl-5-((8′-methyl-1′,1′-dioxido-2,3,5,6-tetrahydrospiro[pyran-4,4′-pyrido[2,3-b][1,4,5]oxathiazepin]-2′(3′H)-yl)methyl)pyridin-3-yl)propanoic Acid]	3280 nM	–
